Experimental data taken from the METLIN SMRT retention time set (Domingo-Almenara et al. 2019).

Experiment: gradient 5% acetonitrile 3 min, to 50% in 2 min, to 85% in 15 min, held 3 min, 100 µL/min
Details: column: Zorbax Extend-C18 2.1 x 50 mm; eluents: water / acetonitrile, 0.1% formic acid
Method in brief: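 Retention time was recorded from adduct peaks, which were picked computationally and each inspected manually. Pure standards ran in mixtures of ~100 molecules on HPLC coupled to a quadrupole time-of-flight mass spectrometer, in positive and negative ionization mode, through a Zorbax Extend-C18 column (2.1 × 50 mm, 1.8 μm) at 100 μL/min. Eluents were water and acetonitrile, each with 0.1% formic acid.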

RP-LC retention time	SMILES
710 s	COc1cccc(C(=O)Nc2cccn3ncnc23)c1
759 s	CC1CCN(c2ncc(NC(=O)c3ccc(Br)cc3)cc2C(=O)O)CC1
803 s	CC1(C)CC(=O)c2cn(-c3ccccc3)c(=O)c(C(=O)Nc3ccccc3)c2C1
896 s	Cn1c(=O)sc2cc(S(=O)(=O)N3CCC(C(=O)N4CCc5ccccc5C4)CC3)ccc21
616 s	Cc1ccnc(N2CCC(C(=O)N3CCN(C(=O)c4ccco4)CC3)CC2)n1
674 s	COc1ccccc1CC(=O)Nc1cccn2cnnc12
628 s	CC1CCCN(c2ccc(-c3noc(CN4CCN(C(C)C)CC4)n3)cn2)C1 (stereo unspecified)
956 s	COc1ccc(-c2noc(CN3C(=O)C(C)Oc4ccccc43)n2)c(OC)c1 (stereo unspecified)
596 s	CCOC(=O)c1c(C)c(CCC(=O)NCCN2CCN(C)CC2)n(C)c1C
933 s	O=C1NCCCCCN(C(=O)CC2CCCCC2)[C@@H]2C[C@@H](C(=O)N3CCc4ccccc4C3)C[C@H]12
580 s	O=C(c1ccncn1)N1CC(n2cnnc2C2CCCO2)C1 (stereo unspecified)
655 s	CN1CCCn2cc(S(=O)(=O)Nc3ccc4c(c3)OCCO4)cc2C1=O
732 s	Cc1ccc(C)c(N2CCN(CC(O)c3ccc4c(c3)OCO4)CC2)c1 (stereo unspecified)
764 s	COc1ccc(C2C(C(=O)N3CCC(C)CC3)c3cc(OC)c(OC)cc3C(=O)N2C)cc1OC (stereo unspecified)
824 s	CN1c2cc(C(=O)NC3CCCCC3)ccc2C(=O)N2CCCCC21 (stereo unspecified)
889 s	Cc1ccc(C(=O)N2CCCC2COc2ccc(C(=O)NC(C)C)cc2)cc1F (stereo unspecified)
1260 s	CCOC(=O)c1cc(C2CC2)nc2c1c(=O)n(Cc1ccc(Cl)cc1)c(=O)n2C
731 s	Cc1nn(-c2ccccc2)c(C)c1S(=O)(=O)Nc1ccc(S(N)(=O)=O)cc1
654 s	Cc1ccc(C)c(CNC(=O)C2CCN(c3cncnc3N3CCOCC3)CC2)c1
628 s	CCN(Cc1ccc(C)cc1)Cc1cc(=O)n2ccc(C)cc2n1
670 s	CCc1nccn1Cc1nc(-c2ccc(Cl)cc2)no1
638 s	Cc1ncn(CC(=O)Nc2ccc(F)cc2)c(=O)c1C
798 s	COCCn1ccc2c(OCC(=O)N(C(C)C)C(C)C)cccc2c1=O

RP-LC retention time	SMILES
766 s	Cc1ccc(Cl)cc1NC(=O)CSc1ccc(N2CCOCC2)nn1
751 s	Cc1ccc(-c2noc(CCN3CCN(c4ccccc4)CC3)n2)cc1
718 s	COc1cccc(C(=O)N2CCC3(CC2)NC(=O)c2ccccc2N3C)c1
588 s	Cc1cc(C)n(-c2ccnc(NCc3cccnc3)n2)n1
948 s	Cc1ccc(NC(=O)C2CCN(S(=O)(=O)c3ccc4c(c3)NC(=O)C(C)O4)CC2)cc1Cl (stereo unspecified)
747 s	CC(=O)N(C1CCOCC1)C1CCN(C(=O)Nc2cc(F)c(F)c(F)c2)CC1
1240 s	CC(C)c1ccc(-n2ccnc(NC(=O)Nc3cccc(Cl)c3)c2=O)cc1
707 s	CCCNC(=O)C1CCN(c2ccc(SCC(=O)Nc3ccc4c(c3)CCC4)nn2)CC1
587 s	Cc1ccsc1C(=O)NC1CCc2nnc(C3CC3)n2CC1 (stereo unspecified)
1210 s	COc1cc(OC)cc(C(=O)Nc2nc3c(s2)Cc2c(Br)ccc(OC)c2-3)c1
941 s	O=c1n(Cc2cccc(Br)c2)nc2c(S(=O)(=O)N3CCCCC3)cccn12
600 s	CCCc1nc2cccnc2n1C1CCN(C(=O)Nc2ccc3c(c2)OCCO3)C1 (stereo unspecified)
642 s	COc1ccc(NC(=O)Cn2ncc3c(N4CCN(c5ccccn5)CC4)ncnc32)cc1Cl
657 s	COc1cccc(NC(=O)N2CCN(c3cc(C)nc(N4CCCC4)n3)CC2)c1
577 s	COC(=O)N1CCN(Cc2cccc(NC(=O)Nc3ccc(C)nc3)c2F)CC1
804 s	COCCNC(=O)C1CCN(C(=O)c2cc3oc(C)cc3n2Cc2c(F)cccc2Cl)CC1
666 s	COCc1c(C(=O)O)nnn1-c1ccc2c(c1)OCCO2
655 s	COc1ccc(C(=O)N2CCC3(C2)C(=O)Nc2ccccc23)c(OC)c1 (stereo unspecified)
796 s	Cc1cccc(CNC(=O)c2ccc3c(c2)Sc2ncccc2C(=O)N3C)c1
632 s	COc1ccc(OC)c(-c2[nH]ncc2CN2CC(F)(F)C[C@H]2CN2CCCCC2)c1
1010 s	CCc1cc(C(=O)NC2CC2)nc2cc(-c3cccs3)nn12
771 s	Cc1ccc(C)c(N2CCN(C(=O)c3cn4ccccc4n3)CC2)c1
996 s	CCc1ccc(NS(=O)(=O)c2ccc(-c3nnc(C4CCC4)o3)o2)cc1

RP-LC retention time	SMILES
938 s	CC1(C)CC(=O)C2=C(C1)Nc1ccccc1N(CC(=O)Nc1ccccc1)C2c1ccc(F)cc1 (stereo unspecified)
757 s	CCc1ccccc1NC(=O)Cn1ncc2c(c1=O)N(CC1CC1)C(=O)CS2
981 s	COc1ccc(NC(=O)CSc2cc(N3CCN(c4ccccc4OC)CC3)ncn2)cc1Cl
878 s	O=C(Nc1ccc(OCc2nnc(-c3ccccc3)o2)cc1)C1CCC1
745 s	O=C(Nc1ccccn1)C1(c2cccs2)CCOCC1
678 s	CCn1cc(C)c(C(=O)O)c1CC(=O)Nc1cccc(C)n1
572 s	CNC(=O)N1CCC(C2CCN(C(=O)CCCC(=O)O)C2)CC1 (stereo unspecified)
1200 s	Cc1ccc(-n2ncc3c(=O)n(Cc4nc(-c5ccc(Br)cc5)no4)cnc32)cc1
806 s	COc1cccc(CNC(=O)Cn2c(=O)cc(-c3nc(C)no3)c3ccccc32)c1
807 s	CCOC(=O)c1c(S(=O)(=O)N2CCC(C(=O)Nc3ccc4c(c3)OCO4)CC2)c(C)n(C)c1C
777 s	Cc1ccc(Cn2cc(CCC(=O)N3CCN(c4ccccn4)CC3)c3ccccc32)cc1
694 s	COCCC1CCN(C(=O)CN(C)C(=O)COc2ccccc2)CC1
757 s	O=C(O)c1cccc(Nc2c(-c3ccc(Cl)cc3)nc3cnccn23)c1
631 s	Cc1ccn2c(=O)cc(CN(C)Cc3ccc(Cl)cc3)nc2c1
610 s	CC(C)c1nc2ccc(CCC(=O)NC(C)c3ccccc3)cc2[nH]1 (stereo unspecified)
929 s	CCCCNC(=O)c1nnn2c1COC(c1ccc(F)cc1)C2 (stereo unspecified)
724 s	CC(C)Cn1c(=O)c(N2CCN(C(=O)CSc3ccccc3)CC2)nc2ccncc21
1160 s	Cc1c(-c2cc(NS(=O)(=O)c3ccccc3Cl)n(C)n2)sc2ccc(Cl)cc12
733 s	CCn1c(C(=O)N2CCCC(C(=O)NCCc3ccc(S(N)(=O)=O)cc3)C2)cc2sccc21 (stereo unspecified)
766 s	CC(C)CC(=O)N1CCC2(CC1)C(=O)N(C)c1ccccc12
943 s	Cc1noc(-c2ccc(-n3ncc(C(=O)NCCC(C)C)c3C)nc2)n1
1150 s	Cc1ccccc1-c1noc(CN2N=NC3C(=O)N(c4ccc(C(C)C)cc4)C(=O)C32)n1 (stereo unspecified)
736 s	CCc1noc(NC(C)=O)c1-c1ccc(OC)c(S(=O)(=O)Nc2ccc3c(c2)OCCO3)c1

RP-LC retention time	SMILES
1040 s	O=C(Nc1ccccc1-c1nc2ccccc2[nH]1)c1cccc([N+](=O)[O-])c1
938 s	CC(C)CCNC(=O)CN1C(=O)CCCc2cc(S(=O)(=O)N3CCC(C)CC3)ccc21
716 s	COc1ccccc1CN1CCc2nc(N3CCN(c4ncccn4)CC3)ncc2C1
580 s	CCOC(=O)c1[nH]c(C)c(CCC(=O)N2CCC(C(=O)NCCCN3CCOCC3)CC2)c1C
725 s	CCOCCOC1CCN(C(=O)c2cccs2)CC1
792 s	CCn1ncn2cc(S(=O)(=O)Nc3ccc(Cl)cc3)cc2c1=O
710 s	Cc1ccc(-c2nc3cnccn3c2NCCC(=O)NCc2ccc(C)o2)cc1
683 s	CCOc1ccccc1C(=O)NC1CCN(C(=O)c2cn[nH]c2-c2ccc(F)cc2)CC1
715 s	CCCCN1CCc2nc(N3CCN(c4ccccc4F)CC3)ncc2C1
606 s	CN1CCC(NC(=O)C2CCc3sc(C(=O)N4CCOCC4)cc3C2)CC1 (stereo unspecified)
973 s	Clc1cccc(-c2nnc(-c3nc(N4CCOCC4)c4ccccc4n3)o2)c1
796 s	Cc1nc(CC(=O)Nc2cc(F)cc(F)c2)cs1
895 s	CSc1ccc(CNC(=O)c2cn3cc(Cl)ccc3n2)cc1
954 s	CCOCCCNC(=O)N1CCCCCC1c1cccc(C)c1 (stereo unspecified)
624 s	O=C(NCC1(O)CCCC1)C1CC(=O)N(c2ccccc2)C1 (stereo unspecified)
890 s	CCOC(=O)c1nc(Nc2cccc(C)c2)c2ccccc2n1
616 s	Cc1noc(C)c1S(=O)(=O)N1CCC(n2c(C)cnc2-c2cccnc2)C1 (stereo unspecified)
886 s	CCCn1cc(S(=O)(=O)Nc2ccc(OC)cc2)c2cccnc21
1170 s	Nc1nc(-c2ccc(Cl)cc2)nn1C(=O)Cc1ccc(Cl)cc1
618 s	COc1ccccc1NC(=O)N1CCN(c2cc(C)nc(N3CCOCC3)n2)CC1

SMILES	RP-LC retention time
Cn1nc(C(=O)NCC2CCOCC2)c2ccccc21	697 s
CCc1cccc(NC(=O)N2[C@H]3CC[C@@H]2c2cncnc2C3)c1	741 s
